# Key:
# Assay in all cases: relative viability (nuclei count vs DMSO), 5 days (fraction); higher = more cells survive
# IPA-3 + Trametinib = compound: C1=CC=C2C(=C1)C=CC(=C2SSC3=C(C=CC4=CC=CC=C43)O)O [IPA-3] + CC(=O)Nc1cccc(-n2c(=O)n(C3CC3)c(=O)c3c(Nc4ccc(I)cc4F)n(C)c(=O)c(C)c32)c1 [Trametinib] (partner 0.02 µM)
# In short: (§1)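 Nuclei were stained with Hoechst during a one-step fixation (final 0.05% Triton X-100, 1% formaldehyde, 1 ug/ml Hoechst) carried out 5 days after dosing, then counted on 4× images. The cells, lung cancer lines in 1536-well plates, had been dosed by pin tool the day after seeding with one drug alone or a fixed anchor-drug dose plus five library-drug doses (not always all listed) in √10 steps. Relative viability is the nuclei count in treated wells divided by that in vehicle wells, and each value is the median of duplicate plates.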
# IPA-3 + Pictilisib = compound: C1=CC=C2C(=C1)C=CC(=C2SSC3=C(C=CC4=CC=CC=C43)O)O [IPA-3] + CS(=O)(=O)N1CCN(Cc2cc3nc(-c4cccc5[nH]ncc45)nc(N4CCOCC4)c3s2)CC1 [Pictilisib] (partner 1 µM)
# In short: as §1
# Doramapimod + Alpelisib = compound: Cc1ccc(-n2nc(C(C)(C)C)cc2NC(=O)Nc2ccc(OCCN3CCOCC3)c3ccccc23)cc1 [Doramapimod] + Cc1nc(NC(=O)N2CCC[C@H]2C(N)=O)sc1-c1ccnc(C(C)(C)C(F)(F)F)c1 [Alpelisib] (partner 2 µM)
# In short: as §1
# RAF265 + Phenformin = compound: Cn1c(Nc2ccc(C(F)(F)F)cc2)nc2cc(Oc3ccnc(-c4ncc(C(F)(F)F)[nH]4)c3)ccc21 [RAF265] + N=C(N)NC(=N)NCCc1ccccc1 [Phenformin] (partner 250 µM)
# In short: as §1
Cell Line,relative viability (IPA-3 + Trametinib; first compound 0.2 µM),relative viability (IPA-3 + Trametinib; first compound 0.6325 µM),relative viability (IPA-3 + Trametinib; first compound 2 µM),relative viability (IPA-3 + Trametinib; first compound 6.325 µM),relative viability (IPA-3 + Trametinib; first compound 20 µM),relative viability (IPA-3 + Pictilisib; first compound 0.2 µM),relative viability (IPA-3 + Pictilisib; first compound 0.6325 µM),relative viability (IPA-3 + Pictilisib; first compound 2 µM),relative viability (IPA-3 + Pictilisib; first compound 6.325 µM),relative viability (IPA-3 + Pictilisib; first compound 20 µM),relative viability (Doramapimod + Alpelisib; first compound 0.02 µM),relative viability (Doramapimod + Alpelisib; first compound 0.06325 µM),relative viability (Doramapimod + Alpelisib; first compound 0.2 µM),relative viability (Doramapimod + Alpelisib; first compound 0.6325 µM),relative viability (Doramapimod + Alpelisib; first compound 2 µM),relative viability (RAF265 + Phenformin; first compound 0.01 µM),relative viability (RAF265 + Phenformin; first compound 0.03162 µM),relative viability (RAF265 + Phenformin; first compound 0.1 µM),relative viability (RAF265 + Phenformin; first compound 0.3162 µM),relative viability (RAF265 + Phenformin; first compound 1 µM)
NCI-H2405,0.683,0.639,0.511,0.628,0.81,0.458,0.382,0.354,0.519,0.416,0.82,0.718,0.715,1.18,0.678,0.424,0.372,0.384,0.344,0.261
NCI-H3122,0.294,0.227,0.262,0.255,0.216,0.612,0.566,0.559,0.697,0.594,0.952,0.831,0.756,0.776,0.863,0.386,0.385,0.386,,0.348
PC-3 [JPC-3],0.785,0.713,0.744,0.705,0.699,0.863,0.774,0.696,0.668,0.772,1.15,1.01,1.09,1.11,0.978,0.457,0.502,0.469,,0.465
PC-14,1.23,0.654,0.699,0.634,0.918,1.1,0.562,0.804,0.678,1.19,1.01,1.06,0.892,0.995,0.89,0.578,0.599,0.864,,0.539
RERF-LC-KJ,1.01,0.877,0.84,0.872,0.891,0.626,0.501,0.537,0.38,0.486,0.857,0.865,0.765,1.01,0.867,0.469,0.42,0.389,0.408,0.376
SK-LU-1,0.585,0.474,0.506,0.467,0.571,0.617,0.612,0.579,0.712,0.645,0.901,0.925,1.14,1.19,0.866,0.543,0.377,0.385,0.26,0.234
SK-MES-1,0.568,0.528,0.618,0.639,0.659,0.415,0.357,0.321,0.34,0.403,0.87,0.765,0.766,0.869,0.675,0.62,0.404,0.341,0.263,0.2
SW 1573,0.67,0.546,0.46,0.532,0.271,0.593,0.503,0.6,0.479,0.61,0.766,0.712,0.644,0.726,0.549,0.373,0.336,0.353,0.296,0.265
